Patent publication US10138232B2, “Naphthyridinedione derivatives” (NOVARTIS AG, priority 2014, dated 2018)

Test system: CFTR-Y122X (GFP-CFTR-Y122X-Renilla construct) in Hek293 cell lines
Test: CFTR-Y122X assay (dual reporter readthrough, Renilla luminescence)
Type: cell-based
Details: Homo sapiens, compounds incubated 24 h, tested up to 100 μM; for AC50: nonsense mutation suppression in the CFTR-Y122X assay; for Emax: nonsense mutation suppression, 100% activity = 14 mM paromomycin, read-out: Amax
Description: In particular, compounds of formula (I), (I′), (Ia), (Ia′) or (Ib) I act as nonsense mutation suppressors on frequent PTCs, e.g. on Y122X in the mRNA of the cystic fibrosis conductance regulator protein (CFTR). This can be determined in vitro, for example, using cell lines expressing GFP-CFTR-Y122X-Renilla constructs as described herein.
Activity of compounds of the present invention was examined in recombinant, dual reporter isogenic Hek293 cell lines (“CFTR-Y122X assay”). The engineered reporter constructs contained the 18 bp sequence strech corresponding to a common Y122X PTC mutation in CFTR class I mutant patients (see Sermet-Gaudelus, BMC Medicine, 2007, 5(5)). Instead of a tyrosine (Y) in position 122 of the CFTR protein a TGA stop codon interrupts the open reading frame (Y122X) of the corresponding mRNA. This TGA stop codon triplet (followed by the pyrimidine base cytosine) is permissive to aminoglycoside mediated translational readthrough which served as positive control for high throughput screening. A corresponding TAA stop codon variant and a wildtype non mutated construct was used for confirmation and counter screening. The CFTR sequence was sandwiched between an eGFP reporter, and a triple myc tag sequence fused to a full length Renilla reporter. All sequences, including an intron containing one positioned pre-eGFP (b-globin intron) were cloned in frame. The corresponding expression constructs were stably expressed in the isogenic HEK-R4 cell host (Invitrogen Incorp.) and selected by blasticidin resistance. The isogenic integration of the construct minimizes gene dose effects and improves assay reproducibility. Stably integrated single cell derived clones were selected and characterized for aminoglycoside mediated readthrough. […] Readthrough of Y122X accumulates an intracellular localized fusion protein approximately 65.5 kDa in size as controlled by western blot analysis and immunofluorescence using an anti-renilla antibody. The eGFP reporter pre-PTC mutation serves as visual control for genetic stability of the screening clones and minimizes protein degradation of small fusion protein amounts. In the assay, compound concentration was 10 μM. In miniaturized 1536 well format 2000 cells were dispensed in 4 μl/well and incubated for 24 h at 37° C., 5% CO2. 40 nl compounds were placed on the cells with control wells containing 1 ul Paramomycin and 14.4 mM final concentration. Compounds were incubated for 24 h. Renilla Glo substrate (2.5 ul) was added and plates were centrifuged and processed for luminescence measurement using various readers. Activity calculation was done using the equation: A1(%)=100*(S−NC)/(AC−NC) where AC, NC and S correspond to active controls (injection of Stimulation buffer=100% stimulation), neutral controls (buffer injection which Iloprost EC10) and screening samples (S). NC corresponds to 0% activity whereas AC is 100% activity (14 mM paromomycin). False positive artefacts were removed in confirmation and validation screening using the same assay format followed by counterscreening using the respective wildtype construct (w/o PTC mutation) cell model. Compounds were tested up to 100 μM compound concentration.

SMILES	AC50 [µM]	Emax [%]
CC(C)c1cc2[nH]c3c(c(=O)c2c(=O)n1-c1ccccc1)CCC3 [Example 1.23, 3-isopropyl-2-phenyl-5,6,7,8-tetrahydro-1H-cyclopenta[b][1,6]naphthyridine-1,9(2H)-dione]	5.2	414
CC(C)c1cc2c(c(=O)c3ccccc3n2C)c(=O)n1-c1ccccn1 [Example 2.10, 3-isopropyl-5-methyl-2-(pyridin-2-yl)benzo[b][1,6]naphthyridine-1,10(2H,5H)-dione]	10	177
Cn1c2cc(C3CCC3)n(-c3ccccc3)c(=O)c2c(=O)c2ccsc21 [Example 1.29, 7-cyclobutyl-9-methyl-6-phenylthieno[2,3-b][1,6]naphthyridine-4,5(6H,9H)-dione]	0.7	286
Cn1c2ccc(F)cc2c(=O)c2c(=O)n(-c3ccccc3)c(C3CCC3)cc21 [Example 1.39, 3-cyclobutyl-8-fluoro-5-methyl-2-phenylbenzo[b][1,6]naphthyridine-1,10(2H,5H)-dione]	1.2	239
CC(C)c1cc2[nH]c3sccc3c(=O)c2c(=O)n1C1CCCC1 [Example 2.15, 6-cyclopentyl-7-isopropylthieno[2,3-b][1,6]naphthyridine-4,5(6H,9H)-dione]	–	124
Cc1csc2c(=O)c3c(=O)n(-c4ccccc4)c(C(C)C)cc3[nH]c12 [Example 1.20, 6-isopropyl-3-methyl-7-phenylthieno[3,2-b][1,6]naphthyridine-8,9(4H,7H)-dione]	2.5	183
CC(C)c1cc2[nH]c3c(c(=O)c2c(=O)n1-c1ccccc1)CCCC3 [Example 1.22, 3-isopropyl-2-phenyl-6,7,8,9-tetrahydrobenzo[b][1,6]naphthyridine-1,10(2H,5H)-dione]	7.2	413
Cn1c2ccccc2c(=O)c2c(=O)n(-c3ccccn3)c(C3CCC3)cc21 [Example 2.6, 3-cyclobutyl-5-methyl-2-(pyridin-2-yl)benzo[b][1,6]naphthyridine-1,10(2H,5H)-dione]	3.3	232
CC(C)c1cc2c(c(=O)c3cccc(O)c3n2C)c(=O)n1-c1ccccc1 [Example 1.52, 6-hydroxy-3-isopropyl-5-methyl-2-phenylbenzo[b][1,6]naphthyridine-1,10(2H,5H)-dione]	21	49
Cn1c2ccc(Cl)cc2c(=O)c2c(=O)n(-c3ccccc3)c(C3CCC3)cc21 [Example 1.42, 8-chloro-3-cyclobutyl-5-methyl-2-phenylbenzo[b][1,6]naphthyridine-1,10(2H,5H)-dione]	3.9	134
CC(C)c1c(Cl)c2c(c(=O)c3ccccc3n2C)c(=O)n1-c1ccccc1 [Example 3.2, 4-chloro-3-isopropyl-5-methyl-2-phenylbenzo[b][1,6]naphthyridine-1,10(2H,5H)-dione]	17.2	220
COc1cccc2c(=O)c3c(=O)n(-c4ccccc4)c(C4CCC4)cc3n(C)c12 [Example 1.46, 3-cyclobutyl-6-methoxy-5-methyl-2-phenylbenzo[b][1,6]naphthyridine-1,10(2H,5H)-dione]	3.4	247
Cc1ccc2c(c1)c(=O)c1c(=O)n(-c3ccccc3)c(C3CCC3)cc1n2C [Example 1.38, 3-cyclobutyl-5,8-dimethyl-2-phenylbenzo[b][1,6]naphthyridine-1,10(2H,5H)-dione]	2.3	215
O=c1c2ccccc2[nH]c2cc(C3CCC3)n(C3CCCC3)c(=O)c12 [Example 2.1, 3-cyclobutyl-2-cyclopentylbenzo[b][1,6]naphthyridine-1,10(2H,5H)-dione]	0.5	229
Cc1cc2c(s1)c(=O)c1c(=O)n(-c3ccccc3)c(C3CCC3)cc1n2C [Example 1.36, 6-cyclobutyl-2,4-dimethyl-7-phenylthieno[3,2-b][1,6]naphthyridine-8,9(4H,7H)-dione]	4.1	177
CC(C)c1cc2[nH]c3ccccc3c(=O)c2c(=O)n1N1CCCCC1 [Example 2.13, 3-isopropyl-2-(piperidin-1-yl)benzo[b][1,6]naphthyridine-1,10(2H,5H)-dione]	1.8	265
CC(C)c1cc2c(c(=O)c3sccc3n2C)c(=O)n1-c1ccccc1 [Example 1.17, 6-isopropyl-4-methyl-7-phenylthieno[3,2-b][1,6]naphthyridine-8,9(4H,7H)-dione]	9.2	430
Cn1c2c(c(=O)c3c(=O)n(-c4ccccc4)c(C4CCC4)cc31)CCCC2 [Example 1.28, 3-cyclobutyl-5-methyl-2-phenyl-6,7,8,9-tetrahydrobenzo[b][1,6]naphthyridine-1,10(2H,5H)-dione]	12.8	257
Cc1csc2c(=O)c3c(=O)n(-c4ccccc4)c(C(C)C)cc3n(C)c12 [Example 1.21, 6-isopropyl-3,4-dimethyl-7-phenylthieno[3,2-b][1,6]naphthyridine-8,9(4H,7H)-dione]	5.4	379
Cc1ccc2[nH]c3cc(C(C)C)n(-c4ccccc4)c(=O)c3c(=O)c2c1 [Example 1.9, 3-isopropyl-8-methyl-2-phenylbenzo[b][1,6]naphthyridine-1,10(2H,5H)-dione]	1.2	249
CC(C)c1cc2[nH]c3ccccc3c(=O)c2c(=O)n1-n1cccc1 [Example 2.17, 3-isopropyl-2-(1H-pyrrol-1-yl)benzo[b][1,6]naphthyridine-1,10(2H,5H)-dione]	9	237
CC(C)c1cc2c(c(=O)c3cc(F)ccc3n2C)c(=O)n1-c1ccccc1 [Example 1.6, 8-fluoro-3-isopropyl-5-methyl-2-phenylbenzo[b][1,6]naphthyridine-1,10(2H,5H)-dione]	7.7	507
Cc1cc2c(=O)c3c(=O)n(-c4ccccc4)c(C4CCC4)cc3[nH]c2s1 [Example 1.33, 7-cyclobutyl-2-methyl-6-phenylthieno[2,3-b][1,6]naphthyridine-4,5(6H,9H)-dione]	19.4	243
COc1ccc2c(c1)c(=O)c1c(=O)n(-c3ccccc3)c(C(C)C)cc1n2C [Example 1.49]	–	17
CC(C)c1cc2[nH]c3ccccc3c(=O)c2c(=O)n1-c1ccccn1 [Example 2.9, 3-isopropyl-2-(pyridin-2-yl)benzo[b][1,6]naphthyridine-1,10(2H,5H)-dione]	4.2	198
CC(C)c1cc2c(c(=O)c3cccc4c3n2CC4)c(=O)n1-c1ccccc1 [Example 1.11, 9-isopropyl-8-phenyl-1H-indolo[1,7-ab][1,6]naphthyridine-6,7(2H,8H)-dione]	4	276
CC(C)c1cc2c(c(=O)c3cc(Cl)ccc3n2C)c(=O)n1-c1ccccc1 [Example 1.8, 8-chloro-3-isopropyl-5-methyl-2-phenylbenzo[b][1,6]naphthyridine-1,10(2H,5H)-dione]	14.8	307
CC(C)c1cc2[nH]c3ccc(F)cc3c(=O)c2c(=O)n1-c1ccccc1 [Example 1.5, 8-fluoro-3-isopropyl-2-phenylbenzo[b][1,6]naphthyridine-1,10(2H,5H)-dione]	1.8	358
CC(C)c1cc2c(c(=O)c3ccccc3n2C)c(=O)n1C1CCCC1 [Example 2.4, 2-cyclopentyl-3-isopropyl-5-methylbenzo[b][1,6]naphthyridine-1,10(2H,5H)-dione]	1.8	274
